{"source": "patent US5661139A", "about": "“Bis-(2-aryl) hydrazones” (Alteon Inc., priority 1995, dated 1997)"}
{"test_system": "glycated bovine serum albumin (AGE-BSA) cross-linking to rat tail tendon collagen", "test": "not given", "details": "4 h, pH 7.4", "units": {"IC50": "mM"}}
{"compound": "CC(C=NNc1ccc(C(=O)O)cc1)=NNc1ccc(C(=O)O)cc1", "note": "[Methyl Glyoxal Bis-(4-Hydrazinobenzoic Acid) Hydrazone]", "IC50": 11.5}
{"compound": "CC(C=NNc1ccccc1C(=O)O)=NNc1ccccc1C(=O)O", "note": "[Methylglyoxal Bis-(2-Hydrazinobenzoic Acid) Hydrazone]", "IC50": 0.04}
{"test_system": "not listed separately", "test": "Inhibition of cross-linking of N-acetyl glycyl-lysine methyl ester in the presence of ribose (fluorescence)", "type": "biochemical", "details": "0.5M sodium phosphate buffer pH 7.4, ribose, 37 C, 16-24 hours; fluorescence ex 350 nm / em 400 nm", "method": "N-acetylglycyllysine methyl ester (DP in formula below) Ribose (R in formula below)\n0.5M sodium phosphate buffer pH 7.4 N-acetylglycyllysine methyl ester in 0.5M sodium phosphate buffer, pH 7.4\nTest compounds dissolved in the above buffer and the pH is adjusted to 7.4, if necessary\nReaction mixtures are prepared as follows:\nand incubated at 37 C for 16-24 hours. At the end of the incubation period, the fluroescence is read using an excitation wavelength of 350 nm and emission wavelenth of 400 nm. The inhibition of the cross-linking is calculated from the decrease in the fluorescence in the presence of the test compounds according to the formula:\nInhibition (%)=100×[DPRC fluorescence-RC fluorescence]/DPR", "units": {"IC50": "mM"}}
{"compound": "CC(C=NNc1ccccc1C(=O)OCc1ccc([N+](=O)[O-])cc1)=NNc1ccccc1C(=O)OCc1ccc([N+](=O)[O-])cc1", "IC50": 10}
{"compound": "CC(C=NNc1ccccc1C(=O)OCCOP(=O)(O)O)=NNc1ccccc1C(=O)OCCOP(=O)(O)O", "note": "[Methyl Glyoxal Bis-(2-Hydroxyethylphosphate-2-Hydrazinobenzoate) Hydrazone]", "IC50": 0.597}
{"compound": "CC(C=NNc1ccc(C(=O)O)cc1)=NNc1ccc(C(=O)O)cc1", "note": "[Methyl Glyoxal Bis-(4-Hydrazinobenzoic Acid) Hydrazone]", "IC50": 0.118}
{"compound": "CCOC(=O)c1ccccc1NN=CC(C)=NNc1ccccc1C(=O)OCC", "note": "[Methyl Glyoxal Bis-(Diethyl 2-Hydrazinobenzoate) Hydrazone]", "IC50": 10}
{"compound": "COCCOCCOC(=O)c1ccccc1NN=CC(C)=NNc1ccccc1C(=O)OCCOCCOC", "note": "[Methyl Glyoxal Bis-(Diethylene Glycol Methyl Ether 2-Hydrazinobenzoate) Hydrazone]", "IC50": "> 10"}
{"compound": "COC(=O)c1ccccc1NN=CC(C)=NNc1ccccc1C(=O)OC", "note": "[Methyl Glyoxal Bis-(Dimethyl 2-Hydrazinobenzoate)Hydrazone]", "IC50": "> 10"}
{"compound": "COC(=O)c1ccc(NN=CC(C)=NNc2ccc(C(=O)OC)cc2)cc1", "note": "[Methyl Glyoxal Bis-(Dimethyl 4-Hydrazinobenzoate) Hydrazone]", "IC50": 10}
{"compound": "CC(C=NNc1ccccc1)=NNc1ccccc1", "note": "[Methyl Glyoxal Bis-(Phenylhydrazine) Hydrazone]", "IC50": "> 10"}
{"compound": "CC(C=NNc1ccccc1C(=O)OCCOCCOCCO)=NNc1ccccc1C(=O)OCCOCCOCCO", "note": "[Methyl Glyoxal Bis-(Triethylene Glycol 2-Hydrazinobenzoate) Hydrazone]", "IC50": 1.53}
{"compound": "CC(C=NNc1ccccc1C(=O)OCC(O)CO)=NNc1ccccc1C(=O)OCC(O)CO", "note": "(centres unmarked) [Methyl Glyoxal Bis-[1-(2,3-Dihydroxypropane)-2-Hydrazinobenzoate] Hydrazone]", "IC50": "> 3"}
{"compound": "CC(C=NNc1ccccc1C(=O)OCCO)=NNc1ccccc1C(=O)OCCO", "note": "[Methyl Glyoxal Bis-[1-(2-Hydroxyethane)-2-Hydrazinobenzoate] Hydrazone]", "IC50": 3}
{"compound": "CC(C=NNc1ccccc1C(=O)OCc1ccncc1)=NNc1ccccc1C(=O)OCc1ccncc1", "note": "[Methyl Glyoxal Bis-[4-Methylpyridyl)-2-Hydrazinobenzoate] Hydrazone]", "IC50": 1.24}
{"compound": "CC(C=NNc1ccccc1C(=O)O)=NNc1ccccc1C(=O)O", "note": "[Methylglyoxal Bis-(2-Hydrazinobenzoic Acid) Hydrazone]", "IC50": 0.156}
{"compound": "Methyl Glyoxal Bis-[(1-Hydroxymethyl-1-Acetoxy)-2-Hydrazinobenzoate] Hydrazone", "IC50": 0.764}
{"test_system": "fixed protein (gelatin, i.e., collagen) surface", "test": "Surface browning experiment on gelatin/paper disks with glucose-6-phosphate", "details": "Peridex at a final concentration of 0.04% chlorhexidine, with 100 Mm glucose-6-phosphate, one week at 50° C.", "method": "To further study the ability of inhibitors of nonenzymatic browning to prevent the discoloration of protein on a surface, such as that which occurs on the tooth surface, the following surface browning experiment is performed. As a substitute for a pellicle-covered tooth surface, unexposed and developed photographic paper is used to provide a fixed protein (gelatin, i.e., collagen) surface on a paper backing. Five millimeter circles are punched and immersed for one week at 50° C. in a solution of 100 Mm glucose-6-phosphate in a 0.5M phosphate buffer, pH 7.4, containing 3 Mm sodium azide. Glucose-6-phosphate is a sugar capable of participating in nonenzymatic browning at a more rapid rate than glucose. In addition to the glucose-6-phosphate, chlorhexidine and/or a compound of Formula I are included. After incubation, the gelatin/paper disks are rinsed with water, observed for brown color, and photographed."}
{"compound": "[H]/N=C(\\N/C(=N/[H])NCCCCCCNC(=N)NC(=N)Nc1ccc(Cl)cc1)Nc1ccc(Cl)cc1", "note": "[chlorhexidine]", "browning of the gelatin/paper disks": "significant browning"}
